A short description of series [1]: Apparent permeability across apical to basolateral side in LLC-PK1 cells. Conditions: pig. The series is classed as ADME, cell-based, Sus scrofa.
For series [2], the target named is T1, Serine/threonine-protein kinase B-raf (Homo sapiens, UniProt P15056, V600E). In words: Inhibition of 6-His tagged BRAF V600E mutant (445 to 723 residues) (unknown origin).
The target of series [3] is T1, Serine/threonine-protein kinase B-raf. In words: Inhibition of BRAF V600E mutant in human A-375 cells assessed as reduction in ERK phosphorylation. The series is classed as cell-based.
Series [4] is described as follows: Substrate activity at P-gp in LLC-PK1 cells assessed as efflux ratio of apparent permeability from basolateral to apical side over apical to basolateral side. Type of series: ADME, cell-based, Sus scrofa. Conditions: pig.
Series [5] is described as follows: Substrate activity at BCRP in LLC-PK1 cells assessed as efflux ratio of apparent permeability from basolateral to apical side over apical to basolateral side. The series is classed as ADME, cell-based, Sus scrofa. To be noted: pig.
Series [6] is described as follows: Dissociation constant, pKa of the compound. The series is classed as physicochemical.

The values below come from ChEMBL document CHEMBL5550211 (J Med Chem, 2024).

T1 sequence (P15056 2-766 V600E limits assumed): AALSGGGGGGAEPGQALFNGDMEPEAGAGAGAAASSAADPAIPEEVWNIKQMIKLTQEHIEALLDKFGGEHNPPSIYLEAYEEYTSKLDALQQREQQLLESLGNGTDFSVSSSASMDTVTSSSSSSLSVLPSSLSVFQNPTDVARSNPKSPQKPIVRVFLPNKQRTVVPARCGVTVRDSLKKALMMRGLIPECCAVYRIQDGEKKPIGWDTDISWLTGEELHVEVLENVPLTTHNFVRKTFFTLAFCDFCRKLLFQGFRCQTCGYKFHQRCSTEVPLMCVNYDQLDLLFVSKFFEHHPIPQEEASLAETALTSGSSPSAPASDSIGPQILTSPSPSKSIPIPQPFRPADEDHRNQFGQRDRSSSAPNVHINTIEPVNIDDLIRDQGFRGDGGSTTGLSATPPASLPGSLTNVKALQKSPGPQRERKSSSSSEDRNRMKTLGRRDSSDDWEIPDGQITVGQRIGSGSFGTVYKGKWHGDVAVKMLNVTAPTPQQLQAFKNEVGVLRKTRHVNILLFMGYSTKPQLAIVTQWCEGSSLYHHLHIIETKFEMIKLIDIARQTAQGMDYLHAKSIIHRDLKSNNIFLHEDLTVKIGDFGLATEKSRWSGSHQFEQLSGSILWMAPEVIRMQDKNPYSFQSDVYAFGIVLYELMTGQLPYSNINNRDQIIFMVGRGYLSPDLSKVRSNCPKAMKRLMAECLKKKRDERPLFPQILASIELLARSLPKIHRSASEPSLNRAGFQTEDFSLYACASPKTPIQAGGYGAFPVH

`Cc1c(Nc2c(F)ccc(NS(=O)(=O)C3CC3)c2Cl)ccc2ncn(C)c(=O)c12`: the Papp A→B – broadly, how fast a substance crosses the layer from the apical side – in series [1] turned out to be 22 ×10⁻⁶ cm/s.
With `CCCS(=O)(=O)Nc1ccc(F)c(Nc2ccc3ncn(C)c(=O)c3c2)c1Cl`, the IC50 (commonly the concentration that inhibits the measured activity by half) in series [2] came to 13.8 nM; in series [3], 27.3 nM. The Papp A→B in series [1] turned out to be 39 ×10⁻⁶ cm/s. Further, the Ratio was found to be 4.1 in series [4] and 6 in series [5].
For the molecule `CCCS(=O)(=O)Nc1ccc(F)c(Nc2ccc3ncn(CC)c(=O)c3c2C)c1Cl`, the figures for the half-maximal inhibitory concentration (IC50) in series [2] and in series [3] were 3.61 nM and 27 nM, respectively. For the same molecule, in series [1], the Papp A→B was found to be 30 ×10⁻⁶ cm/s. For the same molecule, the Ratio in series [4] and in series [5] was 0.9 each time.
`CCCS(=O)(=O)Nc1ccc(F)c(Nc2ccc3ncn(C)c(=O)c3c2F)c1Cl`: the Papp A→B in series [1] stood at 33 ×10⁻⁶ cm/s.
Same read-out and setting: the figure for `CCCS(=O)(=O)Nc1ccc(F)c(Oc2ccc3ncn(C)c(=O)c3c2)c1F` is 29 ×10⁻⁶ cm/s.
As to `Cc1c(Nc2c(F)ccc(NS(=O)(=O)CC(C)C)c2Cl)ccc2ncn(C)c(=O)c12`, the IC50 in series [2] worked out at 50.8 nM; in series [3], 122 nM. Moreover, the Papp A→B in series [1] is 27 ×10⁻⁶ cm/s. Also, the Ratio in series [4] was found to be 1.6; in series [5] it was 1.3.
Taken in the same sequence, the figures for `CCCS(=O)(=O)Nc1ccc(F)c(Nc2ccc3ncn(C(C)C)c(=O)c3c2C)c1Cl` were 20 nM, 187 nM, 20 ×10⁻⁶ cm/s, 1.4 and 1.5.
Regarding `CCCS(=O)(=O)Nc1ccc(F)c(Nc2ccc3ncn(C)c(=O)c3c2OC)c1Cl`, in series [1], the Papp A→B came out at 22 ×10⁻⁶ cm/s.
Take `CCCS(=O)(=O)Nc1ccc(F)c(Nc2ccc3ncn(C)c(=O)c3c2C)c1Cl`: the values for the IC50 in series [2] and in series [3] were 14.5 nM and 35.5 nM, respectively. Further, in series [1], the Papp A→B is 28 ×10⁻⁶ cm/s. Further, the Ratio in series [4] amounted to 1.3; in series [5], 1.2. In series [6], the pKa (in general, the pH at which an ionisable group is half protonated) was 7.88.
For `COC(=O)N[C@@H](C)CNc1nccc(-c2cn(C(C)C)nc2-c2cc(Cl)cc(NS(C)(=O)=O)c2F)n1` [ENCORAFENIB], the Papp A→B in series [1] came out at 11 ×10⁻⁶ cm/s. Further, in series [4], the Ratio stood at 26.3.
Consider `CCCS(=O)(=O)Nc1ccc(F)c(C(=O)c2c[nH]c3ncc(-c4ccc(Cl)cc4)cc23)c1F` [VEMURAFENIB], for which the Papp A→B in series [1] worked out at 3 ×10⁻⁶ cm/s. Besides, the Ratio in series [4] is listed as 21.7; in series [5], 15.2.
`Cc1c(Nc2c(F)ccc(NS(=O)(=O)CC3CC3)c2Cl)ccc2ncn(C)c(=O)c12`: the IC50 in series [2] stood at 46.1 nM; in series [3] it was 93.6 nM. In addition, the Papp A→B in series [1] came out at 29 ×10⁻⁶ cm/s. The Ratio in series [4] is recorded as 1.5; in series [5], 1.1.
On the same counts, the results for `CCS(=O)(=O)Nc1ccc(F)c(Nc2ccc3ncn(C)c(=O)c3c2C)c1Cl` are 182 nM, 169 nM, 36 ×10⁻⁶ cm/s, 1.8 and 1.3.
On the same counts, the results for `CCCS(=O)(=O)Nc1ccc(F)c(Nc2ccc3ncn(C)c(=O)c3c2)c1F` are 88 nM, 69.1 nM, 26 ×10⁻⁶ cm/s, 11.1 and 21.3.
Take `CCCS(=O)(=O)Nc1ccc(F)c(Sc2ccc3ncn(C)c(=O)c3c2)c1F`: the Papp A→B in series [1] was found to be 19 ×10⁻⁶ cm/s.
Take `CCCS(=O)(=O)Nc1ccc(F)c(N(C)c2ccc3ncn(C)c(=O)c3c2)c1Cl`: the IC50 in series [2] was determined as 54.9 nM; in series [3], 177 nM. In addition, in series [1], the Papp A→B is 28 ×10⁻⁶ cm/s. The Ratio in series [4] worked out at 3.6; in series [5], 1.3.
Regarding `CCCS(=O)(=O)Nc1ccc(F)c(Nc2ccc3ncn(C4CC4)c(=O)c3c2C)c1Cl`, the IC50 in series [2] came to 11.7 nM; in series [3], 61.5 nM. For the same molecule, the Papp A→B in series [1] is 25 ×10⁻⁶ cm/s. In addition, the Ratio in series [4] and in series [5] was 1.6 each time.
Take `CCCS(=O)(=O)Nc1ccc(F)c(Nc2ccc3ncn(C)c(=O)c3c2Cl)c1Cl`: in series [1], the Papp A→B came out at 24 ×10⁻⁶ cm/s.
For the molecule `CCC(C)S(=O)(=O)Nc1ccc(F)c(Nc2ccc3ncn(C)c(=O)c3c2C)c1Cl` (stereo not given), the IC50 in series [2] amounted to 77.4 nM; in series [3], 113 nM. In addition, the Papp A→B in series [1] worked out at 27 ×10⁻⁶ cm/s. In addition, the results for the Ratio in series [4] and in series [5] were 1.2 and 0.8, respectively.
As to `CCCS(=O)(=O)Nc1ccc(F)c(Nc2ccc3ncn(CC4CC4)c(=O)c3c2C)c1Cl`, the IC50 in series [2] came out at 17.5 nM; in series [3], 285 nM. Besides, the Papp A→B in series [1] was determined as 21 ×10⁻⁶ cm/s. For the same molecule, the Ratio in series [4] stood at 1.1; in series [5], 1.6.
Turning to `CCCS(=O)(=O)Nc1ccc(Cl)c(N(C)c2ccc3ncn(C)c(=O)c3c2)c1F`, the figures for the IC50 in series [2] and in series [3] were 28.4 nM and 178 nM, respectively. In addition, in series [1], the Papp A→B stood at 37 ×10⁻⁶ cm/s. The values for the Ratio in series [4] and in series [5] were 4.1 and 3.9, respectively.
Taken in the same sequence, the figures for `CCCS(=O)(=O)Nc1ccc(F)c(N(CC)c2ccc3ncn(C)c(=O)c3c2)c1F` were 197 nM, 197 nM, 19 ×10⁻⁶ cm/s, 1.5 and 1.5.
`CCCS(=O)(=O)Nc1ccc(Cl)c(Nc2ccc3ncn(C)c(=O)c3c2)c1F`: the IC50 is 60.3 nM in series [2] and 142 nM in series [3]. Also, the Papp A→B in series [1] is 48 ×10⁻⁶ cm/s. The Ratio in series [4] was 7.1; in series [5], 18.9.
As to `CCCS(=O)(=O)Nc1ccc(F)c(N(C)c2ccc3ncn(C)c(=O)c3c2)c1F`, the IC50 in series [2] was determined as 69.2 nM; in series [3], 73.7 nM. Also, the Papp A→B in series [1] is 41 ×10⁻⁶ cm/s. Further, the Ratio in series [4] is 3.2; in series [5], 2.6.
Regarding `CC(C)(C)c1nc(-c2cccc(NS(=O)(=O)c3c(F)cccc3F)c2F)c(-c2ccnc(N)n2)s1` [DABRAFENIB], the Papp A→B in series [1] is 29 ×10⁻⁶ cm/s. The Ratio in series [4] is reported as 10.1; in series [5], 11.7.
